Common to all, as to format: cell-based
Series [1] concerns H1299_eGFP cells. The series can be described thus: siNG transfection and sequential adjuvant treatment, eGFP silencing by flow cytometry. The conditions noted are these: for adjuvant effect on siNG-mediated eGFP silencing: sequential treatment 10, 20 or 40 μM, 20 h, siNGs 2 nM siRNA; for cellular siRNA delivery promoting effect: β2 agonists, 10, 20, 40 μM, 20 h after siNGs.
For series [2], the system named is H1299_eGFP cells. The series can be described thus: Cell viability following CAD incubation (CellTiter GLO). The conditions noted are these: for concentration with significant additional cytotoxicity compared to siNGs alone: human, 20 h. The protocol: The silencing potential of siPLK1-NGs was established through evaluating the cell viability. Hereto, we applied the CellTiter GLO® assay (Promega, Belgium) according to the manufacturer's guidelines. Before initiating the assay, the culture plates and reconstituted assay buffer were placed at room temperature for 30 minutes. Next, the culture medium was replaced by 250 μL fresh cell medium and an equal volume of assay buffer was added. To induce complete cell lysis, the plates were shaken during 2 minutes and the signal was allowed to stabilize the following 10 minutes. 100 μL from each well was subsequently transferred to an opaque 96-well plate, which was measured with a GloMax® 96 Microplate Luminometer (Promega, Belgium). Three biological replicates were performed and data are expressed as the mean cell viability±SEM.
Please note that we only applied siCTRL-loaded NGs in this set of experiments. With the interest of evaluating the possible effect of our treatment on cell viability, the CellTiter GLO® assay was performed as described above. Again, three biological replicates were performed and data are expressed as the mean±SEM.
(In general: ATP-based viability assays read luminescence as a measure of living cells.)

The subject of series [3] is H1299_eGFP cells. The series can be described thus: Side scatter (cellular granularity) by flow cytometry. The protocol:
For silencing experiments, H1299_eGFP cells were seeded in 24 well plates at a density of 35000 cells/well and were allowed to settle overnight. Subsequently, the cells were transfected and treated with small molecular adjuvants as described previously. Note that for every siEGFP or siPLK1 condition an siCTRL sample was included to account for potential off target effects. SiNG-mediated eGFP silencing was determined by flow cytometry. […] The cells were collected, centrifuged during 5 minutes at 300 g, resuspended in 300 μL flow buffer and kept on ice until analysis. For each sample the forward and side scatter as well as the green fluorescent signal were measured for at least 5000 cells.
On the technique in general: Flow cytometry measures light scatter and fluorescence of single cells or particles in a stream.

The test system of a further series is H1299_WT cells. The series can be described thus: Phospholipidosis detection with LipidTOX Red. To be noted: 20 h incubation. Here is the method: H1299_WT cells were seeded and allowed to settle overnight as detailed previously. Next, the cells were incubated with a mixture of a 1/1000 dilution of the LipidTOX™ red phospholipidosis detection reagent (Thermo Fisher Scientific, USA) and the desired CAD in complete cell medium. Upon 20 hour incubation, the cells were fixed with 4% PFA and stored at 4° C. covered in Vectashield antifade mounting medium containing DAPI. Imaging occurred with a LSCM and a 100× oil immersion objective. DAPI and the LipidTOX™ red phospholipidosis dye were respectively excited with the 408 nm and 561 nm laser lines and the signal intensity was determined with Image J in minimum 30 cells from 5 images per condition.

[4] abbreviates: relative to the first four CADs.

Where a name gives a salt, the structure may show the parent alone.

Regarding `OCc1cc(C(O)CNCCCCCCOCCCCc2ccccc2)ccc1O` (stereo not shown) [(18) Salmeterol, Salmeterol], in the series on H1299_eGFP cells [1], the “adjuvant effect on siNG-mediated eGFP silencing” value (shortened to “adjuvant effect”) was “significant additional silencing” and the “cellular siRNA delivery promoting effect” value was “significantly improve cellular siRNA delivery”. Also, the “concentration with significant additional cytotoxicity compared to siNGs alone” value in the series on H1299_eGFP cells [2] was not below 20 µM.

Consider `COc1ccccc1OCCNCC(O)COc1cccc2[nH]c3ccccc3c12` (stereo not shown) [(26) Carvedilol, Carvedilol], for which the “adjuvant effect” value with H1299_eGFP cells [1] is recorded as “significant additional silencing”. For the same molecule, the “cytotoxicity versus sum of separate components” value in the series on H1299_eGFP cells [2] (40 μM sequential to siNG) is given as “exceed the sum of the effects from each separate component”. In addition, the “cytotoxicity ranking, CAD treatment alone” value in the series on H1299_eGFP cells [2] (10-40 μM, no siNG) was “most cytotoxic”.

Consider `CNCCC=C1c2ccccc2CCc2ccccc21.Cl` [(55) Nortriptyline hydrochloride, Nortriptyline hydrochloride], for which the “adjuvant effect” value in the series on H1299_eGFP cells [1] is given as “significant additional silencing”. Further, in the series with H1299_eGFP cells [2], the “concentration with significant additional cytotoxicity compared to siNGs alone” value was determined as 40 µM.

With `CC(C)(C)c1ccc(C(O)CCCN2CCC(C(O)(c3ccccc3)c3ccccc3)CC2)cc1` (stereo not shown) [(56) Terfenadine, Terfenadine], the “effect on % eGFP expression compared to siNGs alone” value in the series on H1299_eGFP cells [1] (1, 2, 3, 4 or 5 μM) is “significantly reduce eGFP expression”. In addition, the “concentration required for silencing effect” value in the series with H1299_eGFP cells [1] (setting [4]) is “substantially lower concentrations were required”.

For `CCc1cc2c(cc1CC)CC(NCC(O)c1ccc(O)c3[nH]c(=O)ccc13)C2` (stereo not shown) [(57) Indacaterol maleate, Indacaterol maleate], in the series with H1299_eGFP cells [1], the “cellular siRNA delivery promoting effect” value was “significantly improve cellular siRNA delivery”.

Regarding `CCN(CC)CCCC(C)Nc1ccnc2cc(Cl)ccc12` (stereo not shown) [Chloroquine, chloroquine], the “adjuvant effect” value is “enhances gene silencing to a similar extent as the initial molecules tested” in the series with H1299_eGFP cells [1] and “improves the silencing potential of the siNGs to a similar extent” in the series with H1299_eGFP cells [1] (listed as CLQ).

As for `CCCCCCCC/C=C\CCCCCCC(O)C(=O)O` (stereo not shown) [Compound 2-OHOA, 2-hydroxy oleic acid], the “effect on gene silencing in combination” value in the series with H1299_eGFP cells [1] (300 μM 2OHOA combined with 10 μM DL) was “additive effect”.

Turning to `CCN(CC)CCO[C@H]1CC[C@@]2(C)C(=CC[C@@H]3[C@@H]2CC[C@]2(C)C(=O)CC[C@@H]32)C1` [Compound U18666A, U18666A], in the series with H1299_eGFP cells [1] (30 μM), the “effect on siNG-mediated gene silencing” value is “clearly improved siNG-mediated gene silencing”. Also, in the series with H1299_eGFP cells [3] (siNG transfection then 30 μM), the “increase in SSC signal” value is 2 fold.

In the case of `Br.COc1ccc2c(c1)[C@]13CCCC[C@@H]1[C@H](C2)N(C)CC3` [Dextromethorphan hydrobromide, monohydrate], in the series on H1299_eGFP cells [1] (setting [4]), the “higher concentration required to obtain similar silencing effects” value stood at 10 fold. Moreover, in the series on H1299_eGFP cells [1], the “adjuvant effect” value was “does not influence gene silencing”. In addition, in the series with H1299_eGFP cells [3] (after siNG transfection), the “concentration significantly augmenting the SSC signal” value was more than 80 µM. Moreover, in the series on H1299_WT cells, the “LipidTOX Red phospholipid signal” value is given as “only higher doses”.

Regarding `COc1ccc(CC(C)NCC(O)c2ccc(O)c(NC=O)c2)cc1` (stereo not shown) [formoterol, formoterol fumarate hemisulfate], in the series on H1299_eGFP cells [1], the “cellular siRNA delivery promoting effect” value is “do not qualify as siRNA delivery enhancers”.

For the molecule salbutamol hemisulfate, the “cellular siRNA delivery promoting effect” value in the series with H1299_eGFP cells [1] is recorded as “do not qualify as siRNA delivery enhancers”.
